Laboratory results from EP4162935B1 (UNIVERSIDADE NOVA DE LISBOA, priority 2021, dated 2023).

How the values were obtained:
SARS-CoV-2 = SARS-CoV-2 cell infection assay in Vero E6 cells, intracellular ATP levels (CellTiter-Glo) and cytopathic effect
[1] = oral administration of a single dose of 300 mg/kg and 2000 mg/kg, 14 days of observation; cited from earlier work

COc1ccc(-c2cc(=O)c3c(O)cc(O)cc3o2)cc1O [diosmetin, 5,7-Dihydroxy-2-(3-hydroxy-4-methoxyphenyl)-4H-benzopyran-4-one]
duration of antiviral effect (SARS-CoV-2; 45 µM): 72 h | optimal concentration (SARS-CoV-2; same as in µM, Vero E6 cells, 30 pfu SARS-CoV-2, 72h): 13.5 µg/mL | signs of toxicity or mortality [1]: did not demonstrate any signs of toxicity or mortality
